Data on 2 compounds can be found in patent US20250197799A1, “CELLS DERIVED FROM POLYPEDILUM VANDERPLANKI AND ODOR SENSOR EQUIPPED THEREWITH” (University of Maryland, College Park, priority 2022, published 2025).

Experiment [1] addresses T1, Orco-Or47a (Drosophila melanogaster, UniProt P81921+Q9VNB5).
T1 sequence (Q9VNB5 1-486): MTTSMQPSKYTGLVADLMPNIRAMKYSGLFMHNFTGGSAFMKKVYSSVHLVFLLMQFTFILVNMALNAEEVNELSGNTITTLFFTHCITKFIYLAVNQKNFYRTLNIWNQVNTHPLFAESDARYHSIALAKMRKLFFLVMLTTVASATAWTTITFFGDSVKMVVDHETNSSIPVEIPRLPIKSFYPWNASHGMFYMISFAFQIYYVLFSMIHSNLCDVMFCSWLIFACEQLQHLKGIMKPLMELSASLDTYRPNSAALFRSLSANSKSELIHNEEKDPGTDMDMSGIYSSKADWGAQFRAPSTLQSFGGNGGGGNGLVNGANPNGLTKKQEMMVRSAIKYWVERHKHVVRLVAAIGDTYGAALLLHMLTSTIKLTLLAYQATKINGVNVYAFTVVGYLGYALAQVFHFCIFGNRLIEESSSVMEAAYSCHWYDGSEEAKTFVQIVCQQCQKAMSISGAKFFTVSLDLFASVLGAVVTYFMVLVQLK
T1 sequence (P81921 1-385): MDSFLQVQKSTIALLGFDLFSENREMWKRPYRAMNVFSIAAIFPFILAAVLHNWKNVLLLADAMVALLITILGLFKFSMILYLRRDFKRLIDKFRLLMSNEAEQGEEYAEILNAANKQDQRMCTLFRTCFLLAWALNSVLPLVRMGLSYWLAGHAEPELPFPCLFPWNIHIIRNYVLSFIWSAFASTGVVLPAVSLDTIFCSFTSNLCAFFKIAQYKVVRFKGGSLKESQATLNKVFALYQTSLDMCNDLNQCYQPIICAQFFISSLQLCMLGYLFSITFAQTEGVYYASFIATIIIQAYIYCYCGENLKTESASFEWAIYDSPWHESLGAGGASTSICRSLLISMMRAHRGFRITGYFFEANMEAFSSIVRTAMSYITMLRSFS
The experiment can be described thus: Functional confirmation of exogenous membrane proteins in Orco-Or47a stable expression cell line. The experiment is classed as cell-based. Also on record: remnant residues; expressed in transfected cells. To be noted: VUAA1 final 100 μM; pentyl acetate final 1 mM; DMSO negative control. How it is done:
3.2 The functionality of GCaMP6f. The functionality of GCaMP6f in the resulting cell lines was evaluated using Ionomycin (Ionomycin; Fujifilm Wako Pure Chemical) to increase the intracellular concentration of calcium ions to provide functional confirmation of exogenous proteins in the GCaMP6f stable-expressing cell line. Ionomycin was dissolved in dimethyl sulfoxide (DMSO; Fujifilm Wako Pure Chemical Industries, Ltd.), adjusted to a final DMSO concentration of 1% and an ionomycin final concentration of 1 μM in IP1-41 medium, and added to the cell solution. As a negative control, DMSO was adjusted to a final concentration of 1% in IP 1-41 medium and added to the cell solution. Bright-field images and fluorescence images (ex: 470/40 nm; em: 525/50 nm) of the cells before and after solution addition were taken (all-in-one fluorescence microscope BZ-X710, Keyence). […] For statistical analysis of fluorescence intensity, one-way ANOVA was performed using Prism8 (GraphPad), followed by Tukey's multiple comparison test as a post-hoc test,
3.3 Functional confirmation of exogenous membrane proteins in cell lines with stable expression of Orco-Or47a. The amount of fluorescence expression was confirmed by the same operation as in 3.2 above. […] Fluorescence images were taken at an excitation wavelength/emission wavelength of 488 nm/525 nm. […]

Experiment [2] has as its target T2, Orco and Or47a (Drosophila melanogaster, UniProt P81921+Q9VNB5).
T2 construct: expressed in transfected cells; host or cells: Pv11 cells (Polypedilum vanderplanki)
T2 sequence (Q9VNB5 1-486): T1 sequence (Q9VNB5 1-486)
T2 sequence (P81921 1-385): T1 sequence (P81921 1-385)
The experiment can be described thus: Fluorescence on stimulation of Pv11 transient expression strain (GCaMP6f, Orco, Or47a). The settings on record: fluorescence microscope, DMSO negative control. The experiment is classed as cell-based. An excerpt: 1. Transient expression strain preparation. GCaMP6f cDNA was amplified by PCR in a conventional manner, and a pPv121-GcaMP6f vector was produced by inserting the amplified DNA sequence (SEQ ID NO: 2) encoding GcaMP6f downstream of a 121 promoter of a pPv121-MCS vector (Tokumoto et. Al., doi: https://doi. Org/10.1101/2020.05.29.123570 “Development of a Tet-On inducible expression system for the anhydrobiotic cell line, Pv11”). Similarly, the cDNA of Orco derived from Drosophila melanogaster was amplified by PCR by a conventional method, and a pPv121-Orco vector was generated by inserting the amplified Orco-encoding DNA sequence (SEQ ID NO:3) downstream of the 121 promoter of the pPv121-MCS vector. […]
The resulting pPv121-GcaMP6f vector, pPv121-Orco vector, and pPv121-Or47a vector were simultaneously transfected to Pv11 cells (see Miyata Y., et. Al, Scientific Reports, 9 (1), 7004. (2019)), and a Pv11 transient expression strain was produced that transiently expressed the GaMP6f, Orco, and Or47a proteins. If the membrane proteins Orco and Or47a were expressed and GcaMP6f was expressed in the cytoplasm, then by stimulating Pv11 transient expression strains with Orco or Or47a agonists or ligands, calcium ion influxed into the cells, and the fluorescence of GcaMP6f was observed. […]

Consider `CCc1ccc(NC(=O)CSc2nnc(-c3cccnc3)n2CC)cc1` [VUAA1, N-(4-ethylphenyl)-2-{[4-ethyl-5-(pyridin-3-yl)-4H-1,2,4-triazol-3-yl]sulfanyl}acetamide], for which the fluorescence intensity entry in experiment [1] is “increase in fluorescence intensity was observed”. The “fluorescence of GCaMP6f on stimulation” value in experiment [2] was “fluorescence was observed”.
In the same order, the values of `CCCCCOC(C)=O` [pentyl acetate] are “increase in fluorescence intensity was also observed” and “fluorescence was observed”.
